What was measured:
[1] = system: Bacteria mixture 1 (Pseudomonas genus); assay: Single inoculation of paint with bacteria mixture 1, live bacteria count (CFU/g) over 28 days (example 1); format: cell-based; settings: for Colony forming units (CFU)/g of paint after days [d]: Table 1, Paint 1
From the text: Paints 1 to 3 were mixed and homogenized with various concentrations of the guanidinium salts to be tested.
The batches obtained of the paint thus prepared were inoculated repeatedly with a mixture of different wild-type bacterial strains that are of practical relevance with regard to contamination. These bacteria had previously been isolated from commercial emulsion paints containing conventional preservatives (bacteria mixture 1, Pseudomonas genus), which are microbially contaminated in practice, and commercial so-called preservative-free alkaline emulsion paints (bacteria mixture 2, alkaliphilic bacteria of the Nesterenkonia & Alkalibacterium genus), which are microbially contaminated in practice.
• Pseudomonas spp. (Pseudomonas oleovorans group) DSM 33933 • Pseudomonas aeruginosa DSM 33935 • Pseudomonas oleovorans DSM 33936 • Pseudomonas putida DSM 33937 • Pseudomonas aeruginosa DSM 33938
The inoculum was added to the respective sample in each inoculation at 2% (v/w) as a fresh cell suspension in a physiological saline solution (0.9% NaCl). The cell count of the added inoculum in example 1 was 10^5/ml, in examples 2 to 5 10^9/ml, and in example 6 10^6/ml, each in equal portions consisting of the individual bacterial strains. The cell suspension was produced by growing the individual bacteria at 30° C. for 24 h in liquid culture on a shaker. The medium used to grow the bacteria from bacteria mixture 1 was Müller-Hinton liquid medium. Bacteria from bacteria mixture 2 were grown in Müller-Hinton liquid medium that had been adjusted to pH 9.5-9.7 with an alkaline buffer solution beforehand. After growing, the individual liquid cultures were centrifuged, and the cells were resuspended in physiological saline solution. In order to adjust the mixture to the desired cell count, the individual bacteria suspensions, if necessary, were diluted accordingly before being combined with saline solution. The cell count of the inoculum was determined in each case by chamber counting.
In example 1, the samples were inoculated once with a bacteria suspension (bacteria mixture 1) with a cell count of 10^5/ml (2% v/w) and the growth thereof was monitored by determining the live bacteria count per g of paint (colony-forming units, CFU/g) in the samples over 28 days. The CFU/g was determined each time by taking an aliquot (1 g) from the previously homogenized sample and running a serial decadic dilution series in physiological saline solution (0.9% NaCl) by streaking on tryptic soy agar, followed by incubation of the agar plates at 30° C. for 48 h.
Inoculation 2% (w/v) with Bacteria Mixture 1, 10^5 CFU/ml

Bacteria mixture 3 = assay: Repetitive stress test of calcium carbonate slurry with bacteria mixture 3, semiquantitative evaluation (example 6); format: cell-based; settings: table 6; slurry having a pH of pH 9.4, addition of 0.075% by weight
Experimental: The calcium carbonate slurry was stored at 60° C. for 3 days prior to addition of the guanidinium salts for heat sterilization. The slurry thus treated was then admixed and homogenized with different concentrations of guanidine salts. The slurry prepared in this way was inoculated repeatedly with bacteria strains of practical relevance (bacteria mixture 3).
• Alcaligenes faecalis NCIMB 13145 • Aeromonas hydrophila DSM 6173 • Escherichia coli DSM 13631 • Burkholderia cepacia DSM 9241 • Staphylococcus aureus DSM 799 • Pseudomonas aeruginosa DSM 50071 • Pseudomonas putida DSM 13624
The inoculum was added to the respective sample in each inoculation at 2% (v/w) as a fresh cell suspension in a physiological saline solution (0.9% NaCl). […] The cell count of the inoculum was determined in each case by chamber counting.
In examples 2 to 6, what is called a repetitive stress test with bacteria was conducted by inoculating the samples at particular time intervals repeatedly with a bacteria suspension having a cell count of 10^9/ml (2% v/w) and monitoring the evolution of the bacteria by a semiquantitative evaluation method. After each inoculation, the samples were incubated at 30° C. for 6 days (bacteria mixture 1 and 3) or 7 and 14 days (bacteria mixture 2), and after these periods bacterial infestation was evaluated semiquantitatively in each case. […]

## N=C(N)N.N=C(N)N.O=C(O)O [guanidine carbonate]
[1]; +0.01% guanidine carbonate (67 ppm guanidine), pH 8.1, 0 d
  Colony forming units (CFU)/g of paint after days [d]: 1.2 × 10^3 CFU/g
[1]; +0.01% guanidine carbonate (67 ppm guanidine), pH 8.1, 2 d
  Colony forming units (CFU)/g of paint after days [d]: 3.2 × 10^3 CFU/g
[1]; +0.01% guanidine carbonate (67 ppm guanidine), pH 8.1, 5 d
  Colony forming units (CFU)/g of paint after days [d]: 3.0 × 10^5 CFU/g
[1]; +0.01% guanidine carbonate (67 ppm guanidine), pH 8.1, 28 d
  Colony forming units (CFU)/g of paint after days [d]: 2.8 × 10^6 CFU/g
[1]; +0.025% guanidine carbonate (164 ppm guanidine), pH 8.3, 0 d
  Colony forming units (CFU)/g of paint after days [d]: 1.2 × 10^3 CFU/g
[1]; +0.025% guanidine carbonate (164 ppm guanidine), pH 8.3, 2 d
  Colony forming units (CFU)/g of paint after days [d]: 1.1 × 10^3 CFU/g
[1]; +0.025% guanidine carbonate (164 ppm guanidine), pH 8.3, 5 d
  Colony forming units (CFU)/g of paint after days [d]: 1.0 × 10^5 CFU/g
[1]; +0.025% guanidine carbonate (164 ppm guanidine), pH 8.3, 28 d
  Colony forming units (CFU)/g of paint after days [d]: 2.3 × 10^6 CFU/g
[1]; +0.05% guanidine carbonate (328 ppm guanidine), pH 8.5, 0 d
  Colony forming units (CFU)/g of paint after days [d]: 9.0 × 10^2 CFU/g
[1]; +0.05% guanidine carbonate (328 ppm guanidine), pH 8.5, 2 d
  Colony forming units (CFU)/g of paint after days [d]: <5 CFU/g
[1]; +0.05% guanidine carbonate (328 ppm guanidine), pH 8.5, 5 d
  Colony forming units (CFU)/g of paint after days [d]: <5 CFU/g
[1]; +0.05% guanidine carbonate (328 ppm guanidine), pH 8.5, 28 d
  Colony forming units (CFU)/g of paint after days [d]: <5 CFU/g
[1]; +0.075% guanidine carbonate (492 ppm guanidine), pH 8.7, 0 d
  Colony forming units (CFU)/g of paint after days [d]: 1.1 × 10^3 CFU/g
[1]; +0.075% guanidine carbonate (492 ppm guanidine), pH 8.7, 2 d
  Colony forming units (CFU)/g of paint after days [d]: <5 CFU/g
[1]; +0.075% guanidine carbonate (492 ppm guanidine), pH 8.7, 5 d
  Colony forming units (CFU)/g of paint after days [d]: <5 CFU/g
[1]; +0.075% guanidine carbonate (492 ppm guanidine), pH 8.7, 28 d
  Colony forming units (CFU)/g of paint after days [d]: <5 CFU/g
[1]; +0.1% guanidine carbonate (656 ppm guanidine), pH 9.0, 0 d
  Colony forming units (CFU)/g of paint after days [d]: 1.2 × 10^3 CFU/g
[1]; +0.1% guanidine carbonate (656 ppm guanidine), pH 9.0, 2 d
  Colony forming units (CFU)/g of paint after days [d]: <5 CFU/g
[1]; +0.1% guanidine carbonate (656 ppm guanidine), pH 9.0, 5 d
  Colony forming units (CFU)/g of paint after days [d]: <5 CFU/g
[1]; +0.1% guanidine carbonate (656 ppm guanidine), pH 9.0, 28 d
  Colony forming units (CFU)/g of paint after days [d]: <5 CFU/g
[1]; table 1, addition of 0.05% by weight to a paint having a pH of greater than or equal to pH 8.5
  Stabilization of the paint against microbial infestation: distinct stabilization
Bacteria mixture 3
  Stabilization of the slurry against microbial infestation: distinct stabilization

Reference: patent US20260265538A1, “Aqueous Industrial Product Stabilized Against Microbial Contamination” (Thor GmbH, priority 2023, published 2026)
